The kinase profiling compilation of Christmann-Franck et al. (2016)

Columns and labels:
Assay in all cases: radiometric filter-binding kinase assay, Kinase HotSpot
Details in all cases: compound 0.5 µM; ATP 10 µM
STK17A (human) = STK17A (human) (UniProt Q9UEE5)
PDPK1 (human) = PDPK1 (human) (UniProt O15530)
EPHA8 (human) = EPHA8 (human) (UniProt P29322)
PASK (human) = PASK (human) (UniProt Q96RG2)
IGF1R (human) = IGF1R (human) (UniProt P08069)
MERTK (human) = MERTK (human) (UniProt Q12866)
CAMKK2 (human) = CAMKK2 (human) (UniProt Q96RR4)
IRAK1 (human) = IRAK1 (human) (UniProt P51617)
MAPK13 (human) = MAPK13 (human) (UniProt O15264)
MAPK14 (human) = MAPK14 (human) (UniProt Q16539)
PKN1 (human) = PKN1 (human) (UniProt Q16512)
ERBB4 (human) = ERBB4 (human) (UniProt Q15303)
PRKCG (human) = PRKCG (human) (UniProt P05129)
CLK3 (human) = CLK3 (human) (UniProt P49761)
BMX (human) = BMX (human) (UniProt P51813)
NEK2 (human) = NEK2 (human) (UniProt P51955)
MAP2K1 (human) = MAP2K1 (human) (UniProt Q02750)
MAP2K2 (human) = MAP2K2 (human) (UniProt P36507)
CDK9 CCNK (human) = CDK9 CCNK (human) (UniProt O75909+P50750)
FGFR4 (human) = FGFR4 (human) (UniProt P22455)
GSK3B (human) = GSK3B (human) (UniProt P49841)
DMPK (human) = DMPK (human) (UniProt Q09013)
SGK3 (human) = SGK3 (human) (UniProt Q96BR1)
MARK4 (human) = MARK4 (human) (UniProt Q96L34)
PRKCI (human) = PRKCI (human) (UniProt P41743)
MARK3 (human) = MARK3 (human) (UniProt P27448)
WNK3 (human) = WNK3 (human) (UniProt Q9BYP7)
EPHB3 (human) = EPHB3 (human) (UniProt P54753)
CDK5 CDK5R1 p25 (human) = CDK5 CDK5R1 p25 (human) (UniProt Q00535+Q15078)
CSK (human) = CSK (human) (UniProt P41240)
IKBKE (human) = IKBKE (human) (UniProt Q14164)
MAPKAPK2 (human) = MAPKAPK2 (human) (UniProt P49137)
BRSK1 (human) = BRSK1 (human) (UniProt Q8TDC3)
DYRK1A (human) = DYRK1A (human) (UniProt Q13627)
EPHA4 (human) = EPHA4 (human) (UniProt P54764)
MYLK2 (human) = MYLK2 (human) (UniProt Q9H1R3)
HIPK1 (human) = HIPK1 (human) (UniProt Q86Z02)
MATK (human) = MATK (human) (UniProt P42679)
WNK2 (human) = WNK2 (human) (UniProt Q9Y3S1)
ABL2 (human) = ABL2 (human) (UniProt P42684)
AURKC (human) = AURKC (human) (UniProt Q9UQB9)
CSNK1D (human) = CSNK1D (human) (UniProt P48730)

Sequence of IGF1R (human) (P08069 whole entry, looked up): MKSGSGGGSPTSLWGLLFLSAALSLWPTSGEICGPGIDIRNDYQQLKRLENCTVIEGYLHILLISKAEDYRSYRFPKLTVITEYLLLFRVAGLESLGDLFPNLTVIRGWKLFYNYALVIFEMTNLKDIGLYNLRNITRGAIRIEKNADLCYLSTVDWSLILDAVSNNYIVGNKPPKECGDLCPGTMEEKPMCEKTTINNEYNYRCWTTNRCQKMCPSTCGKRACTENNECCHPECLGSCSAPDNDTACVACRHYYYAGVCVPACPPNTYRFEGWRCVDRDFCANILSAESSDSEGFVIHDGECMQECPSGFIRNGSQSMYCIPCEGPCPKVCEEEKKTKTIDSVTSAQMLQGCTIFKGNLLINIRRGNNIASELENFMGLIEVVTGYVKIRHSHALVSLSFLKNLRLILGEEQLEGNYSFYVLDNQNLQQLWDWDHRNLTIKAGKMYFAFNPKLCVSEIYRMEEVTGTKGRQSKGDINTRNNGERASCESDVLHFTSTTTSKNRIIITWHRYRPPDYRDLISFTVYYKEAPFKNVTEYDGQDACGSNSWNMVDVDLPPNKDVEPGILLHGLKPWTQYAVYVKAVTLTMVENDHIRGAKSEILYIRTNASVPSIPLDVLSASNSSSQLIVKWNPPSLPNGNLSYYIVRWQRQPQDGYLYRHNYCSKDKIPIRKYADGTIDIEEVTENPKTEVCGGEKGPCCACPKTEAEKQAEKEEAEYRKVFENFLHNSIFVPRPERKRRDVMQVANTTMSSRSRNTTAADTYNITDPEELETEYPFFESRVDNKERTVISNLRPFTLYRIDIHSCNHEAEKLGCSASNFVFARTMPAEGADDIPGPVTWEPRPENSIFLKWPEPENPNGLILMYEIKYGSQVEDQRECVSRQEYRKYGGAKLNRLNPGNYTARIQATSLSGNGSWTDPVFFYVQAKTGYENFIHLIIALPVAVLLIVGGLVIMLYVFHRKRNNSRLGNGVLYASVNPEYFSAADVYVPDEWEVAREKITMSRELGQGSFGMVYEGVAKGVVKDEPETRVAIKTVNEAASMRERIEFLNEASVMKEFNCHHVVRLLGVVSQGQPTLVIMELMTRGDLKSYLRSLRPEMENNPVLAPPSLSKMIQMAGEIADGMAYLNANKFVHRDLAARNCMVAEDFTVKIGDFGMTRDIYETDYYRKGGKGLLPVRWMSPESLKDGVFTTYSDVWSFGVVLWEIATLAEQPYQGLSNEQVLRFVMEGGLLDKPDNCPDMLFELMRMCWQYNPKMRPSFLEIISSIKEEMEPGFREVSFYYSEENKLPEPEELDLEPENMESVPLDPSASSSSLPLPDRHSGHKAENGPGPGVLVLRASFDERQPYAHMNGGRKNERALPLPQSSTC
Sequence of WNK3 (human) (Q9BYP7 whole entry, looked up): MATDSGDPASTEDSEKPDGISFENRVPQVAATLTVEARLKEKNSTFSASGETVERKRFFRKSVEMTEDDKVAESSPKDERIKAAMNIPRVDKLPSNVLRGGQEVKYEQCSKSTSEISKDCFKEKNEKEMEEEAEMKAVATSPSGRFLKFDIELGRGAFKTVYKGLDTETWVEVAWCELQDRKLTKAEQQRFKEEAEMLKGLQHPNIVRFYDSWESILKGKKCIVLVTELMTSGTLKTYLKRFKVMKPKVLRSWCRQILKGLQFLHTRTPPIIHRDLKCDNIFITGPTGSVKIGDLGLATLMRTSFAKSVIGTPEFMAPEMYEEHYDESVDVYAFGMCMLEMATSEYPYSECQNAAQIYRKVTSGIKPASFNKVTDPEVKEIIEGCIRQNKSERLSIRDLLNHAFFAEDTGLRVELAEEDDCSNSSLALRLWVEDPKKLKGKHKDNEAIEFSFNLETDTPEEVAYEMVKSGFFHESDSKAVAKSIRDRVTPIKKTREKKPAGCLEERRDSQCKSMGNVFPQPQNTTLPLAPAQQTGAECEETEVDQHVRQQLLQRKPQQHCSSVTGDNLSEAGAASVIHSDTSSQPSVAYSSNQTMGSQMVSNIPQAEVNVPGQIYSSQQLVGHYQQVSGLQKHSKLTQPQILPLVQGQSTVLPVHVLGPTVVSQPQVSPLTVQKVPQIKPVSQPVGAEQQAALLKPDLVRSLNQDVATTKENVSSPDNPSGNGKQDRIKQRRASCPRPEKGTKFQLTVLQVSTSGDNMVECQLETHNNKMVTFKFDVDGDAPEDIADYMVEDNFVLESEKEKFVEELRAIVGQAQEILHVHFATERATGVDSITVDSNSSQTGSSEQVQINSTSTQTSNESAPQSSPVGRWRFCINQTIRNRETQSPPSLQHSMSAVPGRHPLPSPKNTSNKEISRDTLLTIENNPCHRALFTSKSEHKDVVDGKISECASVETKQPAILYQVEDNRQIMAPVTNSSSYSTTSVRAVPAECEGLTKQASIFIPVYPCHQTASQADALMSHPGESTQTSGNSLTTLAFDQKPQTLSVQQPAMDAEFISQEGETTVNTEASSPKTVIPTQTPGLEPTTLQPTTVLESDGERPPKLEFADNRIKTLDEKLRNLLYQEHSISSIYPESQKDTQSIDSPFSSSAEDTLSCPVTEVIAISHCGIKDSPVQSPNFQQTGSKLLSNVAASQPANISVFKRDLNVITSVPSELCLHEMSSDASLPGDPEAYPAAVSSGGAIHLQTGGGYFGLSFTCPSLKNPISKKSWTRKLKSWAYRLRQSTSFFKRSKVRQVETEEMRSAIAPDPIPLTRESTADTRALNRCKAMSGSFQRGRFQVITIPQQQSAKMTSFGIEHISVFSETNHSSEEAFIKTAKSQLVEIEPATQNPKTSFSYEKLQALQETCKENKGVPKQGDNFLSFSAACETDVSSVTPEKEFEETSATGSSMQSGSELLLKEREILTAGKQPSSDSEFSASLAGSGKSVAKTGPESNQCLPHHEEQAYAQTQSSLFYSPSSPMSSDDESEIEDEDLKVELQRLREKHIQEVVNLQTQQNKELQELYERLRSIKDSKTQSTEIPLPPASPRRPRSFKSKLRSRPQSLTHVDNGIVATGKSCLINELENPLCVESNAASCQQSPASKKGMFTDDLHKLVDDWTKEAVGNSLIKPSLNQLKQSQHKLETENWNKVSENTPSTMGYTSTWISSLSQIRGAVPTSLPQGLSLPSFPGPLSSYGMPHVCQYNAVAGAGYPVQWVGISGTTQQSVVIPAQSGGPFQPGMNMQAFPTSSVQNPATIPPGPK
Sequence of MAP2K1 (human) (Q02750 whole entry, looked up): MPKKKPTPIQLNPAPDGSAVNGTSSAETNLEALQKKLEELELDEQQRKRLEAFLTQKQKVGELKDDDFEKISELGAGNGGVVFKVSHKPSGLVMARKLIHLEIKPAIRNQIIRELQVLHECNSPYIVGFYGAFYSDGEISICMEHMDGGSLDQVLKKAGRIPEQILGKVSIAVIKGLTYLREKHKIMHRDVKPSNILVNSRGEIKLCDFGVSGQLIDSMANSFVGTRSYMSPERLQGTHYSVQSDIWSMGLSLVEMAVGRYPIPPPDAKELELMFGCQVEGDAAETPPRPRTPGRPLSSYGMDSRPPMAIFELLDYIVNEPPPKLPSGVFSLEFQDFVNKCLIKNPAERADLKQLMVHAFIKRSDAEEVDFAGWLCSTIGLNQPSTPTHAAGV
Sequence of CDK5 CDK5R1 p25 (human) (Q00535 whole entry, looked up): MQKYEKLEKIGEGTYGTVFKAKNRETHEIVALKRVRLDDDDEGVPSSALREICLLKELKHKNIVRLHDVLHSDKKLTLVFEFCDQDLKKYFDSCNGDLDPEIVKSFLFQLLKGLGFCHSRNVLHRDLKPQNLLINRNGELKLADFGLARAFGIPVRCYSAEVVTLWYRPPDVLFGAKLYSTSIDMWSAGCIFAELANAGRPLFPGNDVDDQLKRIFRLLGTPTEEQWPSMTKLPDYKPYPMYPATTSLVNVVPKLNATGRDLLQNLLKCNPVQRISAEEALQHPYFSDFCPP
Sequence of CDK5 CDK5R1 p25 (human) (Q15078 whole entry, looked up): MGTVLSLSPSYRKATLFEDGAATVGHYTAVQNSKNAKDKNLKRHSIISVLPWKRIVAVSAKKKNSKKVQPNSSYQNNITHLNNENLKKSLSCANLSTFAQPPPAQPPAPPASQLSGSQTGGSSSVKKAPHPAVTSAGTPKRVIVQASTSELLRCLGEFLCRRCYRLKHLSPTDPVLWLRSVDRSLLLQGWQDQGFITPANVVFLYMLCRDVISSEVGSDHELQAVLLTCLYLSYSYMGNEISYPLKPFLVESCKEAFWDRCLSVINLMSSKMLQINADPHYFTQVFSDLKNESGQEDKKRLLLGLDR
Sequence of NEK2 (human) (P51955 whole entry, looked up): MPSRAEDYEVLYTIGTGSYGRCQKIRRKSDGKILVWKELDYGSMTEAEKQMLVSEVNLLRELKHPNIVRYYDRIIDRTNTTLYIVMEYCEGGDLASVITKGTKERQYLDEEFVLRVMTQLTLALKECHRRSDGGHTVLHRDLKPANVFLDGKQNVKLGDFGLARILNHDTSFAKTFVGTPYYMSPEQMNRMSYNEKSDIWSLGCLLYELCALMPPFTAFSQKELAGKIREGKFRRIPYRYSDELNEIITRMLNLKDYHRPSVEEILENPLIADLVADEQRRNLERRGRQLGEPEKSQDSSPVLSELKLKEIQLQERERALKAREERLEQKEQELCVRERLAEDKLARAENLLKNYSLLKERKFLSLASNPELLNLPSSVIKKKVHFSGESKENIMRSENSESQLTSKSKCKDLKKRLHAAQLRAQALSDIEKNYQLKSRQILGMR
Sequence of CSK (human) (P41240 whole entry, looked up): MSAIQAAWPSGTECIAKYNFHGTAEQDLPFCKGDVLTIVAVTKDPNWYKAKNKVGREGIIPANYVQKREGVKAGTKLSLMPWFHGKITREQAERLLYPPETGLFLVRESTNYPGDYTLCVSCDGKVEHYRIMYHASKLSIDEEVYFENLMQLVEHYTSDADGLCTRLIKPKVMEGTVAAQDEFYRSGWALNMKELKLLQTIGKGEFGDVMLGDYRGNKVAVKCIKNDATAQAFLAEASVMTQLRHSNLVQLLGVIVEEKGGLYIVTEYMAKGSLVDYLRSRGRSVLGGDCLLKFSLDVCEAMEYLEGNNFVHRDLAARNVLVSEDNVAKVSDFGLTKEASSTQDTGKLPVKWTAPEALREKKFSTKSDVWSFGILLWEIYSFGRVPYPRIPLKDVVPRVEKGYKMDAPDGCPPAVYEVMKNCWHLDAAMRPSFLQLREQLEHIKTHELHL

SMILES	residual activity (STK17A (human)) [%]	residual activity (PDPK1 (human)) [%]	residual activity (EPHA8 (human)) [%]	residual activity (PASK (human)) [%]	residual activity (IGF1R (human)) [%]	residual activity (MERTK (human)) [%]	residual activity (CAMKK2 (human)) [%]	residual activity (IRAK1 (human)) [%]	residual activity (PKN1 (human)) [%]	residual activity (ERBB4 (human)) [%]	residual activity (PRKCG (human)) [%]	residual activity (CLK3 (human)) [%]	residual activity (BMX (human)) [%]	residual activity (NEK2 (human)) [%]	residual activity (MAP2K1 (human)) [%]	residual activity (MAP2K2 (human)) [%]	residual activity (CDK9 CCNK (human)) [%]	residual activity (FGFR4 (human)) [%]	residual activity (GSK3B (human)) [%]	residual activity (DMPK (human)) [%]	other results
C#Cc1cccc(Nc2ncnc3cc(OCCOC)c(OCCOC)cc23)c1	99.7	83.8	89.7	97.4	91.6	99	97.1	95.9	108	61.4	84.1	108	100	100	105	105	102	93.3	102	96.9	residual activity (MAPK13 (human)): 95%; residual activity (MAPK14 (human)): 95.3%; residual activity (SGK3 (human)): 100%; residual activity (MARK4 (human)): 102%; residual activity (PRKCI (human)): 99%; residual activity (MARK3 (human)): 96.4%; residual activity (WNK3 (human)): 101%; residual activity (EPHB3 (human)): 58%; residual activity (CDK5 CDK5R1 p25 (human)): 90.5%; residual activity (CSK (human)): 100%
O=C1Cc2c([nH]c3ccc([N+](=O)[O-])cc23)-c2ccccc2N1	46.4	93.7	104	86.9	93	83.1	79.5	93.1	88.2	87.3	92.5	106	110	92.4	92.6	92.5	24.2	90.6	2.68	91.6	residual activity (MAPK14 (human)): 92.1%; residual activity (IKBKE (human)): 93.4%; residual activity (MAPKAPK2 (human)): 77.4%; residual activity (BRSK1 (human)): 39.7%; residual activity (DYRK1A (human)): 86.2%; residual activity (EPHA4 (human)): 96.5%; residual activity (MYLK2 (human)): 94.8%; residual activity (SGK3 (human)): 102%; residual activity (HIPK1 (human)): 98.5%; residual activity (MATK (human)): 98.9%; residual activity (MARK4 (human)): 55.4%; residual activity (WNK2 (human)): 116%; residual activity (ABL2 (human)): 54.6%; residual activity (PRKCI (human)): 83.3%; residual activity (MARK3 (human)): 67.7%; residual activity (WNK3 (human)): 99.7%; residual activity (EPHB3 (human)): 103%; residual activity (CDK5 CDK5R1 p25 (human)): 10.5%; residual activity (CSK (human)): 96.6%
CS(=O)c1ccc(-c2nc(-c3ccc(F)cc3)c(-c3ccncc3)[nH]2)cc1 (centres undefined)	98.9	96.3	101	99.1	94.3	93.9	110	129	96.5	66.8	90	99.1	94.4	105	94.8	99.9	98.6	73.8	80.2	103	residual activity (MAPK13 (human)): 106%; residual activity (IKBKE (human)): 98%; residual activity (BRSK1 (human)): 97.9%; residual activity (DYRK1A (human)): 95.6%; residual activity (EPHA4 (human)): 95.6%; residual activity (AURKC (human)): 98.5%; residual activity (MYLK2 (human)): 99.9%; residual activity (SGK3 (human)): 101%; residual activity (HIPK1 (human)): 104%; residual activity (CSNK1D (human)): 13.9%; residual activity (MATK (human)): 95.6%; residual activity (MARK4 (human)): 98.5%; residual activity (WNK2 (human)): 103%; residual activity (ABL2 (human)): 91.5%; residual activity (PRKCI (human)): 95.2%; residual activity (MARK3 (human)): 101%; residual activity (WNK3 (human)): 99%; residual activity (EPHB3 (human)): 96.7%; residual activity (CDK5 CDK5R1 p25 (human)): 90.6%; residual activity (CSK (human)): 87.7%
